Where “and” joins values, the source holds several entries; their conditions need not be identical. Equal values may be shown once.
Experiments:
[1] = system: L-Galactose dehydrogenase; assay: L-Galactose dehydrogenase substrate specificity; assay type: biochemical, A. deliciosa (kiwifruit)
Protocol: (§1) L-Galactose dehydrogenase (Gen Bank accession AA018639 (EST 56121), 1.5 ug/assay) was cloned from an EST derived from an A. deliciosa (kiwifruit) shoot bud library with a maltose binding protein presequence and assayed as described previously (Laing et al., 2004). L-Galactose-1-Phosphate phosphatase was cloned from Arabidopsis thaliana (At3g02870, 3.1 ug/assay) and assayed as described (Laing et al., 2004). GDP-D-Mannose 3′,5′-Epimerase (198296) was cloned from dormant kiwifruit (A. deliciosa) buds three days after hydrogen cyanamide treatment and assayed as described (Wolucka et al., 2001). The former two enzymes are highly specific as to their substrates (Laing et al., 2004; Laing et al., 2004).
The applicants used two assays to characterise the enzyme, using two sources of the substrate GDP-L-Galactose. The first assay used the E. coli expressed coupling enzymes L-Galactose-1-Phosphate phosphatase and L-Galactose dehydrogenase. […] The dehydrogenase is specific to L-Galactose, not reacting with D-Mannose or D-Galactose or a range of other sugars (Gatzek et al., 2002; Laing et al., 2004) except for L-Gulose. […] Consequently, our coupled assay would measure primarily L-Galactose and also L-Gulose. The applicants either measured the product formed by adding the coupling enzymes in the assay and measuring the time course of NADH formed, or by stopping the reaction after 10 minutes by boiling for 3 minutes and centrifuging. To this latter fixed time assay, the applicants then either adding coupling enzymes to measure L-Galactose production or using the LCMS to measure the products. The LCMS was used only to confirm the results of the coupled enzyme reaction and to measure the reverse reaction.

[2] = biological target: T1, kiwifruit GDP-L-Galactose Guanyltransferase EST 319998 (Actinidia chinensis, UniProt A0A2R6QD99); assay: Continuous coupled assay of transferase activity with guanyl acceptors; conditions: for ability to act as acceptor for the guanyl moiety / vamax / Km: FIG. 3; for ability to act as acceptor for the guanyl moiety: physiological concentrations; for % of D-mannose-1P / Rate: sugar phosphate as guanyl acceptor, epimerase generated substrate; for Rate: N = 6; for vamax / Km: varying concentrations of the guanyl acceptor, continuous coupled assay
T1 sequence (A0A2R6QD99 entry or part of it): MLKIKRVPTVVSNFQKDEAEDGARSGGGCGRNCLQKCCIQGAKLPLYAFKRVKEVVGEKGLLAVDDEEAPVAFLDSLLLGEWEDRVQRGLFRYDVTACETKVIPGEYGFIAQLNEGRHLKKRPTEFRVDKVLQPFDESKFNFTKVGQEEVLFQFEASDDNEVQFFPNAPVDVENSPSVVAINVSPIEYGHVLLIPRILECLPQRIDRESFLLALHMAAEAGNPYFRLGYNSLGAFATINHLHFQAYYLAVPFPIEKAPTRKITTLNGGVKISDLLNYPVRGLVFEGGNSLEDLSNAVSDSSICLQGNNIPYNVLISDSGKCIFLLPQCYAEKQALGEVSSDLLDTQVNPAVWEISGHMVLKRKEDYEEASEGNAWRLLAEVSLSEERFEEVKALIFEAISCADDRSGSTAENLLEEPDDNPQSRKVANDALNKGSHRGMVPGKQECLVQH
Protocol: Expression of genes in E. coli. The EST 319998 from young fruit of Actinidia chinensis and At4g26850 were each cloned into pET30A (Novagene, USA), their sequence checked and expressed in E. coli. The N terminal His6 tag was used to purify the protein. An empty vector control was expressed and purified in parallel. Techniques were essentially as described earlier (Laing et al., 2004).
as §1
The assay for GDP-L-Galactose-1-Phosphate Guanyltransferase was run in 20 mM TrisCl, pH 8.0, GDP-L-Galactose, with 1 mM D-Mannose-1-Phosphate. […] In the latter case, 0.21 mg of epimerase was incubated with GDP-D-Mannose in 20 mM Tris Cl pH 8 in a total volume of 400 μL (see Wolucka et al., 2001) for 30 minutes at 20 C and then used directly in the assay at a 1 to 20 dilution. Assays were either terminated after 10 minutes by heating to 100 C for three minutes, or directly coupled to the phosphatase and L-Galactose dehydrogenase to measure product formation during the assay. Heat terminated assays were cooled on ice, centrifuged to remove precipitated protein and L-Galactose assayed using the coupling enzymes described above (see also (Laing et al., 2004)).
The applicants used two assays to characterise the enzyme, using two sources of the substrate GDP-L-Galactose. The first assay used the E. coli expressed coupling enzymes L-Galactose-1-Phosphate phosphatase and L-Galactose dehydrogenase. […] The applicants either measured the product formed by adding the coupling enzymes in the assay and measuring the time course of NADH formed, or by stopping the reaction after 10 minutes by boiling for 3 minutes and centrifuging. To this latter fixed time assay, the applicants then either adding coupling enzymes to measure L-Galactose production or using the LCMS to measure the products. The LCMS was used only to confirm the results of the coupled enzyme reaction and to measure the reverse reaction.

[3] = biological target: T1, kiwifruit GDP-L-Galactose Guanyltransferase EST 319998; assay: Fixed time transferase assay, aliquots measured by LCMS; assay type: biochemical; conditions: acceptor Gal1P (reverse reaction)
Protocol: The assay for GDP-L-Galactose-1-Phosphate Guanyltransferase was run in 20 mM TrisCl, pH 8.0, GDP-L-Galactose, with 1 mM D-Mannose-1-Phosphate. GDP-L-Galactose was either used directly from the Glycoteam product (in which case high backgrounds were observed due to contaminating L-Galactose-1-Phosphate) or GDP-L-Galactose was generated using the epimerase. In the latter case, 0.21 mg of epimerase was incubated with GDP-D-Mannose in 20 mM Tris Cl pH 8 in a total volume of 400 μL (see Wolucka et al., 2001) for 30 minutes at 20 C and then used directly in the assay at a 1 to 20 dilution. Assays were either terminated after 10 minutes by heating to 100 C for three minutes, or directly coupled to the phosphatase and L-Galactose dehydrogenase to measure product formation during the assay. Heat terminated assays were cooled on ice, centrifuged to remove precipitated protein and L-Galactose assayed using the coupling enzymes described above (see also (Laing et al., 2004)). Assays for L-Galactose were linear with added L-Galactose-1-Phosphate over the range measured. Backgrounds were run using the empty vector control, which gave the same result as a boiled enzyme control.
As an alternative assay, LCMS was used to identify the forward reaction described above as well measure as the reverse pyrophosphorylase reaction where GTP (1 mM) and L-Galactose-1-Phosphate were incubated as above and the formation of GDP-L-Galactose followed. GDP-D-Mannose and GDP-L-Galactose were separated by HPLC before MS. LC-MS employed an LTQ linear ion trap mass spectrometer fitted with an ESI interface (ThermoQuest, Finnigan, San Jose, Calif., USA) coupled to an EttanTM MDLC (GE Healthcare Bio-Sciences). Separation of GDP-D-Mannose and GDP-L-Galactose was achieved using a Hypercarb column (Thermo Electron, USA), 100×2.1 mm maintained at 40 C. Solvents were (A) 50 mM ammonium acetate and (B) acetonitrile and the flow rate was 200 uL/min. The initial mobile phase, 5% B was held for 3 min, then ramped linearly to 20% B at 11 min, held for 5 min, then ramped linearly to 70% B at 19 min and held for 5 min before resetting to the original conditions. Retention times for GDP-D-Mannose and GDP-L-Galactose were 16.8 min and 17.5 min, respectively.
MS data was acquired in the negative mode using both a selective reaction monitoring (SRM) method SRM m/z 604>m/z 344, 362, 424, 442 and a selected ion monitoring (SIM) method SIM m/z 604. This SIM method monitors only the (M-H)— ion for GDP-D-Mannose and GDP-L-Galactose while the SRM method monitors the distinctive daughter ions formed by fragmenting the precursor ion (M-H)— for both compounds. Both methods maximise sensitivity by screening out any chemical noise from other compounds present. The ESI voltage, capillary temperature, sheath gas pressure, sweep gas and auxiliary gas were set at −10 V, 350° C., 25 psi, 3 psi, and 3 psi, respectively. Separation of D-Mannose-1-Phosphate and L-Galactose-1-Phosphate was achieved isocratically using a Hypercarb column (Thermo Electron, USA), 100×2.1 mm maintained at 40° C. Solvents were (A) 20 mM ammonium acetate and (B) methanol and the flow rate was 200 uL/min. Using a mobile phase of 2% B the retention times for D-Mannose-1-Phosphate and L-Galactose-1-Phosphate were 4.3 min and 4.9 min, respectively. MS data was acquired in the negative mode using both a selective reaction monitoring (SRM) method SRM m/z 259>m/z 79, 97 and a selected ion monitoring (SIM) method SIM m/z 259. […]

[4] = system: Tobacco (Nicotiana benthamiana) leaves; assay: Leaf ascorbate after transient transformation of tobacco leaves; assay type: in vivo; conditions: transient expression with P19
Source text: Tobacco (Nicotiana benthamiana) was transiently transformed with Agrobacterium containing the kiwifruit gene for GDP-L-Galactose Guanyltransferase (EST 319998) cloned in pGreen (Hellens et al., 2000) mixed with Agrobacterium containing the gene for the silencing suppressor P19 as previously described (Hellens et al., 2005). Controls were run using Agrobacterium containing P19 in pGreen alone. Tobacco leaves were harvested 9 days after transformation and frozen in liquid nitrogen.
Ascorbate was extracted as described previously in metaphosphoric acid without reducing agent (Davey et al., 2003; Rassam and Laing, 2005). […]

Row | Molecule | ability to act as acceptor for the guanyl moiety [2] | % of D-mannose-1P [2] | Rate [2] | vamax [2] | further results
1 | O=C[C@@H](O)[C@@H](O)[C@H](O)[C@@H](O)CO [L-Gulose] |  |  |  |  | KM (substrate) relative to L-Galactose [1]: 30 times; maximum velocity with L-Gulose relative to L-Galactose [1]: approximately 2.5 fold; activity compared with L-Galactose ([1]; at limiting substrate concentrations): about 8%
2 | O=P(O)(O)O[C@H]1O[C@H](CO)[C@@H](O)[C@H](O)[C@@H]1O [D-Mannose-1-P, D-Mannose-1-Phosphate] | better acceptor for the guanyl moiety than phosphate or pyrophosphate | 100% | 0.33 nmoles/sec/ug protein | 0.17±0.009 nmoles sec^−1 ug^−1 protein | 
3 | O=P(O)(O)OP(=O)(O)O [pyrophosphate, inorganic pyrophosphate] | reaction was seen |  |  | 0.032±0.002 nmoles sec^−1 ug^−1 protein | Km [2]: 0.16 ± 0.05 mM
4 | O=P(O)(O)O [phosphate, inorganic phosphate] | reaction was seen |  |  | 0.12±0.03 nmoles sec^−1 ug^−1 protein | Km [2]: 4.4 ± 2 mM
5 | O=P(O)(O)O[C@H]1O[C@H](CO)[C@H](O)[C@H](O)[C@H]1O [D-Galactose-1-P] |  | 113% | 0.38 nmoles/sec/ug protein |  | 
6 | O=P(O)(O)O[C@H]1O[C@H](CO)[C@@H](O)[C@H](O)[C@H]1O [D-Glucose-1-P] |  | 106% and 74% | 0.35 nmoles/sec/ug protein and 0.24 nmoles/sec/ug protein |  | 
7 | Nc1nc2c(ncn2[C@@H]2O[C@H](COP(=O)(O)OP(=O)(O)OP(=O)(O)O)[C@@H](O)[C@H]2O)c(=O)[nH]1 [GTP] |  |  |  |  | transferase activity, LCMS ([3]; 0.057 ug protein): 0 nmoles/sec/ug protein; transferase activity, LCMS ([3]; 1.14 ug protein): 0 nmoles/sec/ug protein
8 | Nc1nc2c(ncn2[C@@H]2O[C@H](COP(=O)(O)OP(=O)(O)O[C@H]3O[C@H](CO)[C@@H](O)[C@H](O)[C@@H]3O)[C@@H](O)[C@H]2O)c(=O)[nH]1 [GDPMan, GDP-D-Mannose] |  |  |  |  | transferase activity, LCMS ([3]; 0.057 ug protein): 0 nmoles/sec/ug protein; transferase activity, LCMS ([3]; 1.14 ug protein): 0 nmoles/sec/ug protein
9 | O=P(O)(O)OC[C@H]1OC(O)[C@H](O)[C@@H](O)[C@@H]1O (stereo partly drawn) [D-Glucose-6-P] |  | 24% | 0.08 nmoles/sec/ug protein |  | rate relative to the best acceptors ([2]; guanyl acceptor, Table 2): about 25%
10 | 82552_Md: GDP-L-Galactose Guanyltransferase from Malus x domesticus (apple) (protein, Malus x domesticus) MLRIKRVPTVVSNYQKDEAEEVARRVGGCGRNCLNQCCIPGAKLPLYAFKKLNVNDGDTGLLGREKREPPVAFLDSLLLGEWEDRMQRGLFRYDVTACETKVIPGQFGFIAQLNEGRHLKKRPTEFRVDKVLQPFDGSKFNFTKVGQEEVLFQFEASKDGEVQFFPSAPIDVESSPSVVAINVSPIEYGHVLLIPHILERLPQRIDRESFLLALHMAAEAGNPYFRLGYNSLGAFATINHLHFQAYYLAVTFPIEKAPTKKISTLNAEVKVSELLNYPVRGLVFEGGNTLQDLSNTVSDACICLQENNIPYNVLISDSGKRIFLVPQCYAEKQALGEVRAEILDTQVNPAVWEISGHMVLKRKKDYDEASDENAWKLLAEVSLSEERFLEVNALIFEGIASGDNGNENLLKDPEVKPRSHEEVNTINKRVHCSAVNEQICRVFTM |  |  |  |  | effect on leaf ascorbate [4]: increased ascorbate levels in the leaf
